Assay [1] concerns E. coli W3110hns-205::Tn10. In kind it is cell-based. The note with it: 3 mM, L-broth containing tetracycline, 37° C.; for Growth inhibition: semi-quantitative estimate. The protocol:
A single E. coli colony (W3110 hns-205::Tn10) was picked from an L-agar plate containing tetracycline (10 μg ml^−1) and inoculated into 10 ml L-broth. This was grown overnight in a shaking incubator at 37° C. 200 μl of overnight culture was inoculated into 20 ml L-broth in a 50 ml conical flask, and grown at 37° C. in a shaking water bath to an optical density at 600 nm (OD600) of between 0.2 and 0.3. Two ml of this culture was inoculated into 18 ml pre-warmed L-broth containing tetracycline (10 μg ml^−1) to which had been added an appropriate volume of indole, isoquinoline, indoline, tryptamine, quinoline, or pyrrole stock solution (0.5 M in ethanol), IAA stock solution (0.5 M in water), 3-β-indoleacrylic acid stock solution (0.125 M in ethanol) or 1-acetylindoline stock solution (0.25 M in ethanol) to give a final concentration of 3 mM.

The test system of the next assay is E. coli BW25113. Description: Growth inhibition of E. coli BW25113 by indole in L-broth (FIG. 1). In kind it is cell-based. The note with it: 37° C. The protocol: For the experimentation for which results are shown in FIG. 1, E. coli BW25113 (Datsenko & Wanner, 2000)was grown overnight at 37° C. in L-broth (Kennedy, 1971). The stationary phase culture was used to inoculate a series of L-broth cultures supplemented with indole (0-6 mM) and their growth was monitored over the next 7 hours.

For the next assay, the system named is E. coli W3110. The experiment in a line: Growth of W3110 in tryptone water broth supplemented with indole (FIG. 2a). In kind it is cell-based. The note with it: 37° C. On the procedure: (§1) For the experimentation for which results are shown in FIG. 2a and FIG. 2b, W3110 and W3110hns-205 (Mukherjee et al., 2004) were cultured at 37° C. in tryptone water broth (Oxoid) supplemented with 0, 2 or 4 mM indole.

A further assay deals with W3110 hns205. Description: Indole-induced quiescence of W3110 hns205 in broth culture (FIG. 2a, 2b, 3). It is filed as cell-based, E. coli. The protocol:
as §1
For the experimentation for which results are shown in FIG. 3a and FIG. 3b, W3110hns205 was cultured in L-broth at 30° C. (FIG. 3a) or 42° C. (FIG. 3b). At t=0 each culture was split into two and indole (final concentration 2 mM) was added to one part. […] The control cultures (no indole) continued to grow until they reached stationary phase.

For assay [2], the system named is W3110hns205 containing plasmid pCMT2bompAhGM-CSF. Description: hGM-CSF expression in indole-treated cultures, ELISA of total cell lysates (FIG. 4). In kind it is cell-based, E. coli. The note with it: for hGM-CSF production: 42° C., L-broth. On the procedure:
For the experimentation for which results are shown in FIG. 4, W3110hns205 containing plasmid pCMT2bompAhGM-CSF^(see below) (which contains the coding sequence for the cytokine hGM-CSF fused to an ompA leader sequence, transcribed from promoter lambda PL under the control of the temperature sensitive repressor cI857) was grown in L-broth at 30° C. to an OD600 of 0.36, at which point the culture was transferred to 42° C. to induce cytokine expression. Simultaneously indole was added to the growth medium at final concentrations of 0, 2 or 4 mM (FIG. 4a).
Cytokine production was quantified by ELISA of total cell lysates and assay data were normalised for culture density (FIG. 4b). […] In the control culture (no indole), hGM-CSF increased in the first hour before declining.

For assay [3], the system named is W3110hns-205 containing pCMT2blacZ. Description: Growth and beta-galactosidase (LacZ) expression in indole-treated culture (FIG. 5). It is filed as cell-based, E. coli. The note with it: 2 mM indole, 42° C. On the procedure:
For the experimentation for which results are shown in FIGS. 5a and 5b, W3110hns-205 containing pCMT2blacZ (a plasmid which contains the coding sequence for beta-galactosidase, transcribed from promoter lambda PL under the control of the temperature sensitive repressor cI857) was grown in L-broth at 30° C. to OD600=0.15. The culture was then divided into two and the temperature was increased to 42° C. to induce lacZ expression. Indole (2 mM) was added immediately to one subculture to induce a quiescent state, while the other was an indole-free control. Beta-galactosidase activities were measured for 24 hours after the temperature shift.

In another assay the test system is W3110 rnc-14. Description: Indole-induced quiescence in an rnc mutant (FIG. 6). It is filed as cell-based, E. coli. To be noted: 2 mM indole. The protocol:
For the experimentation for which results are shown in FIG. 6, a culture of W3110 rnc-14 was grown in L-broth at 37° C. to a density of OD600=0.15. The culture was divided into two (t=0) and indole (2 mM) was added to one of the sub-cultures. Growth of the cultures was measured over the following 27 hours. While the control culture eventually reached stationary phase at OD600=2, the indole-treated culture entered a non-growing state after approximately 7 hours and remained at a density of OD600=1 (approx.).

Another assay concerns W3110hns-205 pcIts857. Description: Comparison of indole- and Rcd-induced quiescence (FIG. 7). It is filed as cell-based, E. coli. To be noted: 42° C., L-broth. The protocol: The experiment for which results are shown in FIG. 7 compared the growth kinetics of Rcd-induced and indole-induced quiescent cultures. Cultures of W3110hns-205 pcIts^857 (Remaut et al., 1983) transformed with either pRcd1 (Rcd expression plasmid; Mukherjee et al., 2004)) or pUCdeltalacZ (control plasmid; no Rcd) were grown in L-broth at 30° C. for 90 minutes, then 2×5 ml aliquots of each culture were transferred to 50 ml conical flasks, pre-warmed to 42° C. (t=0). The temperature shift induces Rcd expression in cultures containing plasmid pRcdl but not in cultures containing pUCdeltalacZ. For each pair of cultures, indole (final concentration 2 mM) was added to one of them. IPTG was added to all cultures so that the induction of chromosomal LacZ could be monitored. Culture density was monitored over the following 24 h.

The test system of assay [4] is E. coli W3110hns-205::Tn10. It is filed as cell-based. To be noted: L-broth containing tetracycline.
In the next assay the test system is E. coli gene mdtE. The note with it: 2 mM indole; cited from earlier work.

“Also recorded” adds a separate entry of the source. Like-named read-outs stand apart in the source and are kept apart here.

Take `O=C(O)/C=C/c1c[nH]c2ccccc12` [3-β-indoleacrylic acid]: in [1], the “effect on growth (in words)” value is given as “very similar effects to indole; also recorded: significant inhibitory effects” and the Growth inhibition result is reported as “+++”.

As to `NCCc1c[nH]c2ccccc12` [tryptamine], in [1], the “effect on growth (in words)” value was “some inhibition of growth but their effect was less severe than indole; also recorded: slight growth inhibition”.

Take `c1ccc2ncccc2c1` [quinoline]: the “effect on growth (in words)” value is recorded as “significant inhibitory effects” in [1] and “some inhibition of growth but their effect was less severe than indole; also recorded: substantial growth inhibition, but less severe than that shown by indole” in assay [1] (listed as Quinoline).

For the molecule `O=C(O)Cc1c[nH]c2ccccc12` [IAA, indole-3-acetic acid], in assay [1], the “effect on growth (in words)” value was “slight stimulation of growth” and the Growth inhibition result is on record as “−^b”. For the same molecule, in [1] (listed as indole acetic acid), the “effect on growth (in words)” value is reported as “not observed to have a significant effect on growth”.

As for `c1ccc2cnccc2c1` [isoquinoline], in assay [1], the “effect on growth (in words)” value is reported as “very similar effects to indole; also recorded: significant inhibitory effects” and the Growth inhibition result is “+++”. In addition, in assay [1] (listed as Isoquinoline), the “effect on growth (in words)” value is “very similar effects to indole”.

As for `c1ccc2c(c1)CCN2` [indoline], the “effect on growth (in words)” value in [1] was “some inhibition of growth but their effect was less severe than indole”; in assay [1] (listed as Indoline), “slight growth inhibition”.

As for pyrrole, in assay [1], the “effect on growth (in words)” value was “no observed inhibitory effect” and the Growth inhibition entry was “−”. For the same molecule, the “effect on growth (in words)” value in assay [1] (listed as Pyrrole) is “not observed to have a significant effect on growth”.

In the case of `c1ccc2[nH]ccc2c1` [indole], the effect on growth entry is “growth inhibition was not evident; also recorded: no effect upon growth” in the assay on E. coli BW25113 (1 mM indole); “partial inhibition; also recorded: slowing of the growth rate” in the assay on E. coli BW25113 (2 or 3 mM indole); “Growth inhibition was severe; also recorded: almost complete inhibition of growth” in the assay on E. coli BW25113 (4, 5 or 6 mM indole); “partial growth inhibition; also recorded: reduced growth rate” with E. coli W3110 (2 mM indole); “inhibited growth severely; also recorded: completely inhibited growth” in the assay with E. coli W3110 (4 mM indole); “enter a quiescent state” with W3110 hns205 (2 mM indole, L-broth). Also, the effect on growth entry with W3110 hns205 (4 mM indole, L-broth) is recorded as “complete growth inhibition”; with W3110 hns205 (4 mM indole, tryptone water broth, 37° C.), “almost complete inhibition of growth”. In addition, the induction of quiescence result in the assay on W3110 hns205 (2 mM indole, L-broth, 30° C. or 42° C.) was “induce quiescence; also recorded: entered the quiescent state with similar kinetics at both temperatures”; in the assay with W3110 rnc-14 it was “induce quiescence; also recorded: enters quiescence”; in the assay on W3110hns-205 pcIts857 (2 mM indole plus Rcd expression (pRcd1)), “entered a quiescent state but more rapidly and reached a lower final density”; with W3110hns-205 pcIts857 (2 mM indole, no Rcd), “enter a quiescent state with similar growth kinetics; also recorded: entered a quiescent state”. For the same molecule, in the assay on W3110 hns205 (2 mM indole, at 30° C., 37° C. and 42° C.), the “persistence of the quiescent state” value was “at least 24 hours”. Moreover, the “appropriate final concentration of indole to induce quiescence” value in the assay on W3110 hns205 (shake-flask culture) turned out to be 2 mM. In addition, the hGM-CSF production result in [2] (2 mM indole, quiescent culture) was “increased rapidly for the first hour”; in assay [2] (4 mM indole), “produced no hGM-CSF”. In addition, the “peak hGM-CSF concentration of control culture (no indole) relative to quiescent culture” value in [2] (2 mM indole, normalised for culture density) is “less than half”. Besides, in assay [3] (L-broth), the “final OD600” value came to 0.78. Besides, the beta-galactosidase activity in assay [3] (after 24 h) is 27,000 MU. Besides, in the assay with W3110 rnc-14 (L-broth, 37° C.), the “culture density OD600 in non-growing state” value is roughly 1. Moreover, the “time to enter a non-growing state” value in the assay on W3110 rnc-14 (L-broth, 37° C.) was “approximately 7 hours”. The Growth inhibition entry in assay [1] is listed as “+++”. In addition, the “minimum concentration which causes immediate growth inhibition” value in assay [4] is listed as 3 mM. Further, the elevation of expression in the assay on E. coli gene mdtE is 22 fold.

As to `CC(=O)N1CCc2ccccc21` [1-acetylindoline], the “effect on growth (in words)” value in assay [1] is given as “substantial growth inhibition, but less severe than that shown by indole; also recorded: significant inhibitory effects”.
